Test results published in patent US20250206732A1, “COMPOUNDS AND METHODS FOR THE TARGETED DEGRADATION OF KRAS” (Arvinas Operations, Inc., priority 2022, published 2025).

Biological target: T1, AsPC-1 HiBiT-KRASG12D (Homo sapiens, UniProt P01116, G12D)
T1 construct: insert the HiBiT tag onto the N-terminus of one or more of the endogenous KRAS alleles; endogenous in cells; host or cells: AsPC-1 (ATCC CRL-1682), CRISPR-Cas9 knock-in clone, one tagged allele
Test: HiBiT degradation assay (G12D), AsPC-1 HiBiT-KRASG12D cells
Format: cell-based
Details: 24 hours treatment; for DC50: AsPC-1 HiBiT-KRASG12D cells, HiBiT luminescence; for Dmax: ASPC1, AsPC-1 HiBiT-KRASG12D cells, maximum degradation observed
How it was run: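 HiBiT-KRAS abundance was read as Nano-Glo HiBiT lytic luminescence (45 min, room temperature) after a PBS wash. Before that, a 4 h alamar blue fluorescence read, normalized to DMSO, monitored viability. Treatment lasted 24 hours at 37 °C, in triplicate, using AsPC-1 cells with endogenous N-terminally HiBiT-tagged KRAS G12D.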

T1 sequence (P01116 1-188 isoform P01116-2 G12D): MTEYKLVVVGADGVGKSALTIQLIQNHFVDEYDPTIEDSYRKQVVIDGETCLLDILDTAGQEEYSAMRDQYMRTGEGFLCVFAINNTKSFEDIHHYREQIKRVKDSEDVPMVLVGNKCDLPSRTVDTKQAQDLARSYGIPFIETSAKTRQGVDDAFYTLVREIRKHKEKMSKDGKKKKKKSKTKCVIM

Compound | DC50 [nM] | Dmax [%]
CCc1cccc2cc(O)cc(-c3ncc4c(N5CC6CCC(C5)N6)nc(OCCN5CCC(F)(CC6CCN(c7cc([C@@H](C(=O)N8C[C@H](O)C[C@H]8C(=O)N[C@@H](C)c8ccc(-c9scnc9C)cc8)C(C)C)on7)CC6)CC5)nc4c3F)c12 [Compound 240] | > 3000 | –
C#Cc1c(F)ccc2cc(O)cc(-c3ncc4c(N5CC6CCC(C5)N6)nc(OCCN5CCC(CC6CCN(c7cc([C@@H](C(=O)N8C[C@H](O)C[C@H]8C(=O)N[C@@H](C)c8ccc(-c9scnc9C)cc8)C(C)C)on7)CC6)CC5)nc4c3F)c12 (single isomer, unassigned) [Compound 308] | < 600 | 60 to 80
CCc1cccc2cc(O)cc(-c3ncc4c(N5CC6CCC(C5)N6)nc(OC[C@@]56CCCN5[C@H](CN5CCC7(CC5)CN(c5cc([C@H](C(=O)N8C[C@H](O)C[C@H]8C(=O)N[C@@H](C)c8ccc(-c9scnc9C)cc8)C(C)C)on5)C7)CC6)nc4c3F)c12 [Compound 88, (2S,4R)-1-[(2R)-2-[3-(7-{[(3S,7aS)-7a-{[(4-{3,8-diazabicyclo[3.2.1]octan-3-yl}-7-(8-ethyl-3-hydroxynaphthalen-1-yl)-8-fluoropyrido[4,3-d]pyrimidin-2-yl)oxy]methyl}-hexahydro-1H-pyrrolizin-3-yl]methyl}-2,7-diazaspiro[3.5]nonan-2-yl)-1,2-oxazol-5-yl]-3-methylbutanoyl]-4-hydroxy-N-[(1S)-1-[4-(4-methyl-1,3-thiazol-5-yl)phenyl]ethyl]pyrrolidine-2-carboxamide] | < 600 | 80 to 100
CCc1cccc2cc(O)cc(-c3ncc4c(N5CC6CCC(C5)N6)nc(OC[C@@]56CCCN5[C@H](COC(=O)N5CCN(c7cc([C@H](C(=O)N8C[C@H](O)C[C@H]8C(=O)N[C@@H](C)c8ccc(-c9scnc9C)cc8)C(C)C)on7)[C@H](C)C5)CC6)nc4c3F)c12 [Compound 327, [(3S,8S)-8-[[4-(3,8-diazabicyclo[3.2.1]octan-3-yl)-7-(8-ethyl-3-hydroxy-1-naphthyl)-8-fluoro-pyrido[4,3-d]pyrimidin-2-yl]oxymethyl]-1,2,3,5,6,7-hexahydropyrrolizin-3-yl]methyl (3R)-4-[5-[(1R)-1-[(2S,4R)-4-hydroxy-2-[[(1S)-1-[4-(4-methylthiazol-5-yl)phenyl]ethyl]carbamoyl]pyrrolidine-1-carbonyl]-isobutyl]isoxazol-3-yl]-3-methyl-piperazine-1-carboxylate] | < 600 | 80 to 100
CCc1cccc2cc(O)cc(-c3ncc4c(N5CCCCCC5)nc(OC[C@]56CCCN5[C@H](COC(=O)N5CCC(Oc7cc([C@H](C(=O)N8C[C@H](O)C[C@H]8C(=O)N[C@@H](C)c8ccc(-c9scnc9C)cc8)C(C)C)on7)CC5)CC6)nc4c3F)c12 [Compound 286, [(3S,8R)-8-[[4-(azepan-1-yl)-7-(8-ethyl-3-hydroxy-1-naphthyl)-8-fluoro-pyrido[4,3-d]pyrimidin-2-yl]oxymethyl]-1,2,3,5,6,7-hexahydropyrrolizin-3-yl]methyl 4-[5-[(1R)-1-[(2S,4R)-4-hydroxy-2-[[(1S)-1-[4-(4-methylthiazol-5-yl)phenyl]ethyl]carbamoyl]pyrrolidine-1-carbonyl]-2-methyl-propyl]isoxazol-3-yl]oxypiperidine-1-carboxylate] | < 600 | 80 to 100
CCc1cccc2cc(O)cc(-c3ncc4c(N5CCCCCC5)nc(OC[C@@H]5CC[C@@H](COC(=O)N6CCN(c7cc([C@H](C(=O)N8C[C@H](O)C[C@H]8C(=O)N[C@@H](C)c8ccc(-c9scnc9C)cc8)C(C)C)on7)CC6)N5C)nc4c3F)c12 [Compound 272, [(2S,5S)-5-[[4-(azepan-1-yl)-7-(8-ethyl-3-hydroxy-1-naphthyl)-8-fluoro-pyrido[4,3-d]pyrimidin-2-yl]oxymethyl]-1-methyl-pyrrolidin-2-yl]methyl 4-[5-[(1R)-1-[(2S,4R)-4-hydroxy-2-[[(1S)-1-[4-(4-methylthiazol-5-yl)phenyl]ethyl]carbamoyl]pyrrolidine-1-carbonyl]-2-methyl-propyl]isoxazol-3-yl]piperazine-1-carboxylate] | < 600 | 60 to 80
CCc1cccc2cc(O)cc(-c3ncc4c(N5CC6CCC(C5)N6)nc(OCCN5CCC(C)(CCOc6cc([C@H](C(=O)N7C[C@H](O)C[C@H]7C(=O)N[C@@H](C)c7ccc(-c8scnc8C)cc7)C(C)C)on6)CC5)nc4c3F)c12 [Compound 237] | > 3000 | –
Cc1ncsc1-c1ccc([C@H](C)NC(=O)[C@@H]2C[C@@H](O)CN2C(=O)[C@@H](c2cc(OC[C@@H]3CC[C@]4(COc5nc(N6CC7CCC(C6)N7)c6cnc(-c7cccc8ccc(F)c(F)c78)c(F)c6n5)CCCN34)no2)C(C)C)cc1 [Compound 61, (2S,4R)-1-[(2R)-2-(3-{[(3S,7aS)-7a-{[(4-{3,8-diazabicyclo[3.2.1]octan-3-yl}-7-(7,8-difluoronaphthalen-1-yl)-8-fluoropyrido[4,3-d]pyrimidin-2-yl)oxy]methyl}-hexahydro-1H-pyrrolizin-3-yl]methoxy}-1,2-oxazol-5-yl)-3-methylbutanoyl]-4-hydroxy-N-[(1S)-1-[4-(4-methyl-1,3-thiazol-5-yl)phenyl]ethyl]pyrrolidine-2-carboxamide] | < 600 | 80 to 100
CCc1cccc2cccc(-c3ncc4c(N5CCCCCC5)nc(OC[C@@]56CCCN5[C@@H](COC(=O)N5CCN(c7cc([C@H](C(=O)N8C[C@H](O)C[C@H]8C(=O)N[C@@H](C)c8ccc(-c9scnc9C)cc8)C(C)C)on7)CC5)CC6)nc4c3F)c12 (relative stereo) [Compound 49] | > 3000 | –
CCc1cccc2cc(O)cc(-c3ncc4c(N5CC6CCC(C5)N6)nc(OCCN5CCC(F)(CN6CCN(c7cc([C@@H](C(=O)N8C[C@H](O)C[C@H]8C(=O)N[C@@H](C)c8ccc(-c9ccnn9C)cc8)C(C)C)on7)CC6)CC5)nc4c3F)c12 [Compound 197, (2S,4R)-1-[(2S)-2-(3-{4-[(1-{2-[(4-{3,8-diazabicyclo[3.2.1]octan-3-yl}-7-(8-ethyl-3-hydroxynaphthalen-1-yl)-8-fluoropyrido[4,3-d]pyrimidin-2-yl)oxy]ethyl}-4-fluoropiperidin-4-yl)methyl]piperazin-1-yl}-1,2-oxazol-5-yl)-3-methylbutanoyl]-4-hydroxy-N-[(1S)-1-[4-(1-methyl-1H-pyrazol-5-yl)phenyl]ethyl] pyrrolidine-2-carboxamide] | 1000 to 3000 | < 20
CCc1cccc2cc(O)cc(-c3ncc4c(N5CC6CCC(C5)N6)nc(OCCN5CCC(CC6CN(c7cc(C(C(=O)N8C[C@H](O)C[C@H]8C(=O)N[C@@H](C)c8ccc(-c9scnc9C)cc8)C(C)C)on7)C6)CC5)nc4c3F)c12 (relative stereo) [Compound 82, (2S,4R)-1-[(2R*)-2-(3-{3-[(1-{2-[(4-{3,8-diazabicyclo[3.2.1]octan-3-yl}-7-(8-ethyl-3-hydroxynaphthalen-1-yl)-8-fluoropyrido[4,3-d]pyrimidin-2-yl)oxy]ethyl}piperidin-4-yl)methyl]azetidin-1-yl}-1,2-oxazol-5-yl)-3-methylbutanoyl]-4-hydroxy-N-[(1S)-1-[4-(4-methyl-1,3-thiazol-5-yl)phenyl]ethyl]pyrrolidine-2-carboxamide] | 600 to 1000 | 20 to 60
C#Cc1c(F)ccc2cccc(-c3ncc4c(N5CC6CCC(C5)N6)nc(OC[C@@]56CCCN5[C@H](COc5cc([C@H](C(=O)N7C[C@H](O)C[C@H]7C(=O)N[C@@H](C)c7ccc(-c8scnc8C)cc7)C(C)C)on5)CC6)nc4c3F)c12 [Compound 52, (2S,4R)-1-[(2R)-2-(3-{[(3S,7aS)-7a-{[(4-{3,8-diazabicyclo[3.2.1]octan-3-yl}-7-(8-ethynyl-7-fluoronaphthalen-1-yl)-8-fluoropyrido[4,3-d]pyrimidin-2-yl)oxy]methyl}-hexahydro-1H-pyrrolizin-3-yl]methoxy}-1,2-oxazol-5-yl)-3-methylbutanoyl]-4-hydroxy-N-[(1S)-1-[4-(4-methyl-1,3-thiazol-5-yl)phenyl]ethyl]pyrrolidine-2-carboxamide] | < 600 | 80 to 100
CCc1cccc2cc(O)cc(-c3ncc4c(N5CC6CCC(C5)N6)nc(OC[C@@]56CCCN5[C@H](COC(=O)NCc5cc([C@H](C(=O)N7C[C@H](O)C[C@H]7C(=O)N[C@@H](C)c7ccc(-c8scnc8C)cc7)C(C)C)on5)CC6)nc4c3F)c12 [Compound 104, [(3S,7aS)-7a-{[(4-{3,8-diazabicyclo[3.2.1]octan-3-yl}-7-(8-ethyl-3-hydroxynaphthalen-1-yl)-8-fluoropyrido[4,3-d]pyrimidin-2-yl)oxy]methyl}-hexahydro-1H-pyrrolizin-3-yl]methyl N-({5-[(2R)-1-[(2S,4R)-4-hydroxy-2-{[(1S)-1-[4-(4-methyl-1,3-thiazol-5-yl)phenyl]ethyl]carbamoyl}pyrrolidin-1-yl]-3-methyl-1-oxobutan-2-yl]-1,2-oxazol-3-yl}methyl) carbamate] | < 600 | 80 to 100
CCc1cccc2cc(O)cc(-c3ncc4c(N5CC6CCC(C5)N6)nc(OC[C@H]5CC[C@@]6(COC(=O)N7CCN(c8cc([C@H](C(=O)N9C[C@H](O)C[C@H]9C(=O)N[C@@H](C)c9ccc(-c%10scnc%10C)cc9)C(C)C)on8)CC7)CCCN56)nc4c3F)c12 [Compound 343, [(3R,8R)-3-[[4-(3,8-diazabicyclo[3.2.1]octan-3-yl)-7-(8-ethyl-3-hydroxy-1-naphthyl)-8-fluoro-pyrido[4,3-d]pyrimidin-2-yl]oxymethyl]-1,2,3,5,6,7-hexahydropyrrolizin-8-yl]methyl 4-[5-[(1R)-1-[(2S,4R)-4-hydroxy-2-[[(1S)-1-[4-(4-methylthiazol-5-yl)phenyl]ethyl]carbamoyl]pyrrolidine-1-carbonyl]-2-methyl-propyl]isoxazol-3-yl]piperazine-1-carboxylate] | < 600 | 80 to 100
